Measurements reported in the supplement of paper PMC10307832.

Columns and labels:
Assay in all cases: relative viability (nuclei count vs DMSO), 5 days (fraction); higher = more cells survive
[1] = compound: C1=CC=C(C(=C1)C2=CC=C(C=C2)C3=CSC4=C3C(=C(C(=O)N4)C#N)O)O + CCNC(=O)c1noc(-c2cc(C(C)C)c(O)cc2O)c1-c1ccc(CN2CCOCC2)cc1 [Luminespib] (partner 0.01 µM)
Outline: (§1)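 Five library-drug doses in √10 steps were combined with a fixed anchor-drug dose, or a single drug was given alone, by pin tool to lung cancer cell lines in 1536-well plates the day after seeding. Nuclei were stained and counted after 5 days. Relative viability is the nuclei count in treated wells over that in vehicle wells, taken as the median of duplicate plates.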

[2] = compound: C1=CC=C(C(=C1)C2=CC=C(C=C2)C3=CSC4=C3C(=C(C(=O)N4)C#N)O)O + Nc1nc2[nH]cc(CCc3ccc(C(=O)N[C@@H](CCC(=O)O)C(=O)O)cc3)c2c(=O)[nH]1 [Pemetrexed] (partner 0.2 µM)
Outline: as §1

TGX 221 + Foretinib = compound: CC1=CN2C(=O)C=C(N=C2C(=C1)C(C)NC3=CC=CC=C3)N4CCOCC4 [TGX 221] + COc1cc2c(Oc3ccc(NC(=O)C4(C(=O)Nc5ccc(F)cc5)CC4)cc3F)ccnc2cc1OCCCN1CCOCC1 [Foretinib] (partner 0.25 µM)
Outline: as §1

Ricolinostat + OSI-027 = compound: O=C(CCCCCCNC(=O)c1cnc(N(c2ccccc2)c2ccccc2)nc1)NO [Ricolinostat] + COc1cccc2cc(-c3nc([C@H]4CC[C@H](C(=O)O)CC4)n4ncnc(N)c34)[nH]c12 [OSI-027] (partner 0.5 µM)
Outline: as §1

Row | Cell Line | relative viability ([1]; first compound 0.08 µM) | relative viability ([1]; first compound 0.253 µM) | relative viability ([1]; first compound 0.8 µM) | relative viability ([1]; first compound 2.53 µM) | relative viability ([1]; first compound 8 µM) | relative viability ([2]; first compound 0.08 µM) | relative viability ([2]; first compound 0.253 µM) | relative viability ([2]; first compound 0.8 µM) | relative viability ([2]; first compound 2.53 µM) | relative viability ([2]; first compound 8 µM) | relative viability (TGX 221 + Foretinib; first compound 0.08 µM) | relative viability (TGX 221 + Foretinib; first compound 0.253 µM) | relative viability (TGX 221 + Foretinib; first compound 0.8 µM) | relative viability (TGX 221 + Foretinib; first compound 2.53 µM) | relative viability (TGX 221 + Foretinib; first compound 8 µM) | relative viability (Ricolinostat + OSI-027; first compound 0.08 µM) | relative viability (Ricolinostat + OSI-027; first compound 0.253 µM) | relative viability (Ricolinostat + OSI-027; first compound 0.8 µM) | relative viability (Ricolinostat + OSI-027; first compound 2.53 µM)
1 | NCI-H1650 | 0.195 | 0.197 | 0.175 | 0.208 | 0.2 | 0.339 | 0.359 | 0.461 | 0.33 | 0.32 | 0.953 | 0.751 | 1.05 | 0.922 | 0.639 | 0.471 | 0.586 | 0.459 | 0.361
2 | NCI-H1651 | 0.77 | 0.818 | 0.971 | 0.974 | 0.546 | 0.386 | 0.62 | 0.513 | 0.617 | 0.549 | 0.768 | 0.611 | 0.729 | 0.586 | 0.609 | 0.607 | 0.651 | 0.603 | 0.618
3 | NCI-H1666 | 0.942 | 1.05 | 0.949 | 1.01 | 1.01 | 0.796 | 0.833 | 0.894 | 0.865 | 0.761 | 1.06 | 0.902 | 0.951 | 0.963 | 0.922 | 0.716 | 0.884 | 0.845 | 0.691
4 | NCI-H1734 | 0.16 | 0.245 | 0.196 | 0.214 | 0.208 | 0.396 | 0.403 | 0.462 | 0.401 | 0.448 | 0.781 | 0.81 | 0.799 | 0.732 | 0.764 | 0.473 | 0.673 | 0.632 | 0.617
5 | NCI-H1755 | 0.401 | 0.302 | 0.336 | 0.349 | 0.447 | 0.463 | 0.469 | 0.545 | 0.439 | 0.714 | 0.926 | 0.884 | 0.82 | 0.763 | 0.781 | 0.538 | 0.791 | 0.717 | 0.62
6 | NCI-H1793 | 0.19 | 0.21 | 0.42 | 0.225 | 0.166 | 0.69 | 0.862 | 0.713 | 0.687 | 0.802 | 0.708 | 0.462 | 0.51 | 0.452 | 0.411 |  | 0.252 | 0.284 | 0.221
7 | NCI-H1915 | 0.665 | 0.632 |  | 0.929 | 0.576 | 0.437 | 0.443 | 0.486 | 0.481 | 0.506 | 0.941 | 1.07 | 1.08 | 1.04 | 1.05 | 0.525 | 0.65 | 0.623 | 0.421
8 | NCI-H1944 | 0.839 | 0.736 | 0.752 | 0.777 | 0.724 | 0.609 | 0.697 | 0.571 | 0.646 | 0.632 | 0.844 | 0.819 | 0.873 | 0.746 | 0.612 | 0.321 | 0.405 | 0.34 | 0.292
9 | NCI-H1975 | 0.174 | 0.248 | 0.161 | 0.253 | 0.161 | 0.312 | 0.288 | 0.302 | 0.307 | 0.295 | 0.862 | 0.899 | 0.965 | 0.841 | 0.797 | 0.638 | 0.84 | 0.76 | 0.599
10 | NCI-H1993 | 0.625 | 0.715 | 0.7 | 0.763 | 0.646 | 0.585 | 0.939 | 0.551 | 0.54 | 0.497 | 0.723 | 0.787 | 0.755 | 0.71 | 0.664 |  | 0.532 | 0.648 | 0.466
11 | NCI-H2009 | 0.962 | 1.02 | 1.11 | 1.03 | 1.02 | 0.97 | 1.04 | 1.02 | 1.1 | 1.08 | 1.12 | 1.14 | 1.25 | 1.14 | 0.789 | 0.447 | 0.565 | 0.553 | 0.567
12 | NCI-H2023 | 0.59 | 0.752 | 0.767 | 0.956 | 0.643 | 0.188 | 0.296 | 0.368 | 0.208 | 0.323 | 0.879 | 0.584 | 0.797 | 0.724 | 0.445 |  | 0.446 | 0.343 | 0.377
13 | NCI-H2085 | 0.403 | 0.475 | 0.479 | 0.499 | 0.416 | 0.838 | 1.01 | 0.801 | 0.886 | 0.818 | 1.06 | 0.845 | 0.96 | 0.428 | 0.401 |  | 0.72 | 0.627 | 0.414
14 | NCI-H2087 | 0.165 | 0.162 | 0.222 | 0.172 | 0.204 | 0.608 | 0.671 | 0.675 | 0.67 | 0.747 | 1.01 | 1.01 | 1.09 | 1.04 | 1.1 |  | 0.603 | 0.545 | 0.45
